Source: patent US20030004165A1, “Polyazanaphthalene compounds and pharmaceutical use thereof” (AJINOMOTO CO. INC, priority 1999, published 2003)

Tests used:
[1] = tested on: TNF α production by Balb/c mouse peritoneal cells; experiment: Inhibition of LPS-induced TNF α production from mouse peritoneal cells; type: cell-based; conditions: LPS 10 μg/ml stimulation, 16 to 18 hours, TNF α by sandwich ELISA
Description: Evaluation of Inhibiting Production of Tumor Necrosis Factors (TNF)
RPMI medium was injected into a peritoneal cavity of Balb/c mouse (Charles River Japan, Inc.) and the peritoneal cells were collected. The peritoneal cells were seeded on a 96-well plate in a concentration of 1×10^4 cells/well. 30 minutes after the addition of the subject pharmaceutical compounds in a proper concentration, LPS (sigma, L-5886) was added to each well so as to obtain the final concentration of 10 μg/ml. After culturing overnight (16 to 18 hours) again, a culture fluid was collected and the amount of TNF α in the culture fluid was determined. Mouse TNF α was determined by the means of a sandwitch ELISA and anti-mouse TNF a hamster monoclonal antibody (Genzyme 1221-00) was used as the first antibody, anti-mouse TNF α rabbit polyclonal antibody (Genzyme, IP-400) as the second antibody, and alkaliphosphatase conjugate anti-rabbit IgG polyclonal goat antibody as the third antibody. Then, optical absorbance of alkaliphosphatase substrate (p-nitrophosphate) was determined and converted into the production amount. When no stimulation was seen, the production amount was defined as 0% and when only […] stimulation was seen, the amount was defined as 100%.

[2] = tested on: MMP-3 (stromelysin-1) production by human joint normal synovial interstitial cells; experiment: Inhibition of IL-1β-induced MMP-3 production from synovial cells; type: cell-based; conditions: IL-1β 0.5 ng/ml stimulation, 16 to 18 hours, MMP-3 in culture fluid
Description: Evaluation of Inhibiting Production of Matrix Metalloprotease (MMP) Collected From Synovial Cells
The human joint normal synovial interstitial cells (cell System-SS cells, Dainippon Pharmaceutical Co., Ltd.) were seeded on a 96-well plate in a concentration of 1×10^4 cells/well and cultured overnight. 30 minutes after the addition of the subject pharmaceutical compounds in a proper concentration, IL-1β was added to each well so as to obtain the final concentration of 0.5 ng/ml. After culturing overnight (16 to 18 hours) again, a culture fluid was collected and the amount of MMP-3 (stromelysin-1) in the culture fluid was determined. MMP-3 was determined with a test kit for determining stromelysin-1 (SL) in serum (Fuji Chemical Industries Ltd.), in accordance with an instruction book attached to the kit. When no stimulation was seen, the production amount was defined as 0% and when only […] stimulation was seen, the amount was defined as 100%.

SMILES | TNF Inhibition Activity (IC50) [1] [µg/mL] | MMP Inhibition Activity (IC50) [2] [µg/mL]
COc1ccc(-c2cnc3ccncc3c2)cc1OC1CCCC1 [Example 26, 3-(3-Cyclopentyloxy-4-Methoxyphenyl)-1,6-Naphthylidine] | 0.01 | –
COc1ccc(-c2cnc3ccnc(N)c3c2)cc1OC [Example 20, 5-Amino-3-(3,4-Dimethoxyphenyl)-1,6-Naphthylidine] | 0.3 | 0.16
COc1ccc(-c2cnc3cc(N)ncc3c2)cc1OC.Cl [Example 18, 7-Amino-3-(3,4-Dimethoxyphenyl)-1,6-Naphthylidine Hydrochloride] | 0.6 | 0.31
COc1ccc(-c2ccc3cnccc3n2)cc1OC [Example 24, 2-(3,4-Dimethoxyphenyl)-1,6-Naphthylidine] | 0.6 | 1.25
COc1ccc(-c2cnc3ncccc3c2)cc1OC [Example 23, 3-(3,4-Dimethoxyphenyl)-1,8-Naphthylidine] | 0.1 | –
COc1ccc(-c2cnc3ccnc(Cl)c3c2)cc1OC [Example 19, 5-Chloro-3-(3,4-Dimethoxyphenyl)-1,6-Naphthylidine] | 1 | –
COc1ccc(-c2cnc3cnccc3c2)cc1OC [Example 22, 3-(3,4-Dimethoxyphenyl)-1,7-Naphthylidine] | 0.02 | 1.25
COc1ccc(-c2cnc3ccncc3c2)cc1OC [Example 1, 3-(3,4-Dimethoxyphenyl)-1,6-Naphtylidine] | 0.5 | 1.25
